According to the SangsterLogP compilation:
Where a SMILES comes first, the peptide text is derived from it.

assay: method code SF-AS, from DOI: 10.1002/qsar.19900090302; settings: pH 7.0

SMILES	logD
CC(=O)N[C@@H](CO)C(=O)N[C@@H](Cc1ccccc1)C(N)=O	-0.79
CC(=O)N[C@@H](Cc1c[nH]c2ccccc12)C(=O)NCC(=O)N[C@@H](Cc1ccccc1)C(N)=O	0.99
CC(=O)N[C@@H](Cc1ccc(O)cc1)C(=O)N[C@H](C(N)=O)C(C)C	-0.2
CC(=O)N[C@@H](Cc1ccccc1)C(=O)NCC(=O)N[C@@H](CC(C)C)C(N)=O	0.6
CC(=O)N[C@@H](Cc1ccccc1)C(=O)N[C@@H](CCC(N)=O)C(N)=O	-1.03
CC(=O)N[C@@H](C)C(=O)NCC(=O)N[C@@H](Cc1ccccc1)C(N)=O (Ac-Ala-Gly-Phe-NH2)	-0.71
CC(=O)N[C@@H](C)C(=O)N[C@@H](Cc1ccc(O)cc1)C(=O)N[C@@H](CC(C)C)C(N)=O (Ac-Ala-Tyr-Leu-NH2)	-0.04
CC(=O)N[C@@H](C)C(=O)N[C@@H](Cc1ccc(O)cc1)C(=O)N[C@@H](Cc1ccccc1)C(N)=O (Ac-Ala-Tyr-Phe-NH2)	0.26
CC(=O)NC(CC(N)=O)C(=O)NC(Cc1ccccc1)C(N)=O (stereo not drawn) (Ac-Asn-Phe-NH2; configuration not given here)	-1.14
CC(=O)N[C@@H](CCC(N)=O)C(=O)N[C@@H](Cc1ccccc1)C(N)=O (Ac-Gln-Phe-NH2)	-1.14
CC(=O)NCC(=O)N[C@@H](Cc1ccccc1)C(N)=O (Ac-Gly-Phe-NH2)	-0.56
CC[C@H](C)[C@H](NC(C)=O)C(=O)N[C@@H](Cc1ccccc1)C(=O)N[C@@H](C)C(N)=O (Ac-Ile-Phe-Ala-NH2)	0.52
CC(=O)N[C@@H](CC(C)C)C(=O)N[C@@H](CO)C(=O)N[C@@H](Cc1ccccc1)C(N)=O (Ac-Leu-Ser-Phe-NH2)	0.23
CC(=O)N[C@@H](Cc1ccccc1)C(=O)NCC(N)=O (Ac-Phe-Gly-NH2)	-0.5
CC[C@H](C)[C@H](NC(=O)[C@H](Cc1ccccc1)NC(C)=O)C(=O)NCC(N)=O (Ac-Phe-Ile-Gly-NH2)	0.34
CC(=O)N[C@@H](Cc1ccccc1)C(=O)N[C@H](C(N)=O)C(C)C (Ac-Phe-Val-NH2)	0.43
CC(=O)N[C@@H](Cc1c[nH]c2ccccc12)C(=O)N[C@@H](C)C(=O)N[C@@H](C)C(N)=O (Ac-Trp-Ala-Ala-NH2)	-0.31
CC(=O)N[C@@H](Cc1c[nH]c2ccccc12)C(=O)N[C@@H](C)C(=O)N[C@H](C(N)=O)C(C)C (Ac-Trp-Ala-Val-NH2)	0.36
CC[C@H](C)[C@H](NC(=O)[C@H](Cc1c[nH]c2ccccc12)NC(C)=O)C(=O)NCC(N)=O (Ac-Trp-Ile-Gly-NH2)	0.62
CC(=O)N[C@@H](Cc1c[nH]c2ccccc12)C(=O)N[C@H](C(N)=O)C(C)C (Ac-Trp-Val-NH2)	0.73
CC(=O)N[C@@H](Cc1ccc(O)cc1)C(=O)N[C@@H](CC(C)C)C(N)=O (Ac-Tyr-Leu-NH2)	0.32
CC(=O)N[C@@H](Cc1ccc(O)cc1)C(=O)N[C@@H](Cc1ccccc1)C(N)=O (Ac-Tyr-Phe-NH2)	0.54
CC(=O)N[C@H](C(=O)N[C@@H](Cc1ccccc1)C(=O)N[C@@H](C)C(N)=O)C(C)C (Ac-Val-Phe-Ala-NH2)	0.06

assay: method code SF-HPLC, from DOI: 10.1002/qsar.19900090302; settings: pH 7.0

SMILES	logD
CC(=O)NCC(=O)N[C@@H](CC(C)C)C(N)=O	-0.78
CC(=O)N[C@@H](CC(C)C)C(=O)N[C@@H](CC(N)=O)C(N)=O	-1.3
CC(=O)N[C@H](C(=O)N[C@@H](C)C(=O)N[C@@H](C)C(N)=O)C(C)C	-1.4
CC[C@H](C)[C@H](NC(=O)[C@@H](NC(=O)[C@H](C)NC(C)=O)C(C)C)C(N)=O	-0.2
CC(=O)N[C@@H](C)C(=O)N[C@@H](CC(C)C)C(N)=O (Ac-Ala-Leu-NH2)	-0.54
CC(=O)N[C@@H](C)C(=O)N[C@@H](CC(C)C)C(=O)N[C@H](C(N)=O)C(C)C (Ac-Ala-Leu-Val-NH2)	-0.14
CC(=O)N[C@@H](C)C(=O)N[C@H](C(N)=O)C(C)C (Ac-Ala-Val-NH2)	-1.13
CC[C@H](C)[C@H](NC(=O)[C@H](CC(N)=O)NC(C)=O)C(N)=O (Ac-Asn-Ile-NH2)	-1.43
CC(=O)NC(CC(N)=O)C(=O)NC(C(N)=O)C(C)C (stereo not drawn) (Ac-Asn-Val-NH2; configuration not given here)	-1.85
CC(=O)NC(CCC(N)=O)C(=O)NC(CC(C)C)C(N)=O (stereo not drawn) (Ac-Gln-Leu-NH2; configuration not given here)	-1.32
CC(=O)NC(CCC(N)=O)C(=O)NC(C(N)=O)C(C)C (stereo not drawn) (Ac-Gln-Val-NH2; configuration not given here)	-1.85
CC(=O)NCC(=O)N[C@@H](C)C(=O)N[C@H](C(N)=O)C(C)C (Ac-Gly-Ala-Val-NH2)	-1.56
CC(=O)NCC(=O)N[C@@H](CC(C)C)C(=O)NCC(N)=O (Ac-Gly-Leu-Gly-NH2)	-1.23
CC(=O)NCC(=O)N[C@H](C(N)=O)C(C)C (Ac-Gly-Val-NH2)	-1.33
CC[C@H](C)[C@H](NC(C)=O)C(=O)N[C@@H](CC(N)=O)C(N)=O (Ac-Ile-Asn-NH2)	-1.41
CC[C@H](C)[C@H](NC(C)=O)C(=O)N[C@H](C(N)=O)C(C)C (Ac-Ile-Val-NH2)	0.16
CC[C@H](C)[C@H](NC(=O)[C@H](CC(C)C)NC(C)=O)C(N)=O (Ac-Leu-Ile-NH2)	0.68
CC(=O)N[C@@H](CC(C)C)C(=O)N[C@H](C(=O)N[C@@H](CC(C)C)C(N)=O)[C@@H](C)O (Ac-Leu-Thr-Leu-NH2)	0.24
CC(=O)N[C@@H](CC(C)C)C(=O)N[C@H](C(N)=O)C(C)C (Ac-Leu-Val-NH2)	0.26
CC(=O)N[C@@H](CO)C(=O)N[C@H](C(N)=O)C(C)C (Ac-Ser-Val-NH2)	-1.53
CC[C@H](C)[C@H](NC(=O)[C@@H](NC(C)=O)[C@@H](C)O)C(N)=O (Ac-Thr-Ile-NH2)	-0.86
CC(=O)N[C@H](C(=O)N[C@H](C(N)=O)C(C)C)[C@@H](C)O (Ac-Thr-Val-NH2)	-1.25
CC(=O)N[C@H](C(=O)N[C@@H](C)C(N)=O)C(C)C (Ac-Val-Ala-NH2)	-1.14
CC(=O)N[C@H](C(=O)N[C@@H](C)C(=O)N[C@H](C(N)=O)C(C)C)C(C)C (Ac-Val-Ala-Val-NH2)	-0.67
CC(=O)NC(C(=O)NC(CCC(N)=O)C(N)=O)C(C)C (stereo not drawn) (Ac-Val-Gln-NH2; configuration not given here)	-1.82
CC[C@H](C)[C@H](NC(=O)[C@@H](NC(C)=O)C(C)C)C(=O)NCC(N)=O (Ac-Val-Ile-Gly-NH2)	-0.45
CC[C@H](C)[C@H](NC(=O)[C@@H](NC(=O)[C@@H](NC(C)=O)C(C)C)C(C)C)C(N)=O (Ac-Val-Val-Ile-NH2)	0.49
CC(=O)N[C@H](C(=O)N[C@H](C(N)=O)C(C)C)C(C)C (Ac-Val-Val-NH2)	-0.32
